Source: patent US11773077B2, “Compounds containing carbon-carbon linker as GPR120 agonists” (PIRAMAL ENTERPRISES LIMITED, priority 2015, dated 2023)

Biological target: T1, GPR120L (Long Isoform) receptor (Homo sapiens, UniProt Q5NUL3)
T1 construct: expressed in transfected cells; similar procedure in HEK 293 cells
T1 sequence (Q5NUL3 1-377 isoform Q5NUL3-1): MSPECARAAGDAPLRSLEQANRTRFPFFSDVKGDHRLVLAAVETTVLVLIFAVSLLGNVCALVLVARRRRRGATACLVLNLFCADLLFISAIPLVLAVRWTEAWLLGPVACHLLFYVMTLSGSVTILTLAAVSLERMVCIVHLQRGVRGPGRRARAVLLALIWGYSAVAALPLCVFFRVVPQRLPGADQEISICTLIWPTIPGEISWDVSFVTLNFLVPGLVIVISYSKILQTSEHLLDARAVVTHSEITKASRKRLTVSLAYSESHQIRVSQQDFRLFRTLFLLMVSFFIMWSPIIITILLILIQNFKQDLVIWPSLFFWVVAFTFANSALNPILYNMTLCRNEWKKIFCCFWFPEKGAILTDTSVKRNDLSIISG
Assay: Beta (β) arrestin 2 Interaction Assay (β-galactosidase enzyme fragment complementation)
Format: cell-based
Conditions: β-arrestin recruitment; CHO-K1 cells stably expressing GPR120L, similar procedure for HEK 293 cells; 2 hours incubation
Description: Beta (β) arrestin 2 Interaction Assay […] was performed using CHO-K1 cells stably expressing the GPR120L (Long Isoform) receptor using β-galactosidase (Beta gal) enzyme fragment complementation assay. The measurement of GPR120 activation upon agonist activation was directly provided by β-arrestin recruitment. One day before the β-arrestin 2 assay, CHO-K1 cells were seeded and incubated overnight at 37° C. in a 5% CO2 humidified atmosphere. Cells were treated with the test compounds in various concentrations ranging from 30 μM to 1 nM and incubated for 2 hours for GPCR (GPR120) activation. Extent of Arrestin recruitment was measured by adding detection reagents for Beta gal complementation assay, and was further incubated for 1 hour. The chemiluminescent signal was detected on Polar Star (BMG Labtech). The dose-response curve was analyzed using Sigma Plot/Graph Pad. The EC50 (concentration of the test compounds where 50% of compounds' maximal activity is observed) values were calculated from the dose-response curve.

| EC50 | Compound |
| --- | --- |
| 5000 to 10000 nM | Cc1ccc(-c2ccc(F)cc2C#Cc2ccc(CCCC(=O)O)nc2)s1 [Compound 3, 4-(5-((5-Fluoro-2-(5-methylthiophen-2-yl)phenyl)ethynyl)pyridin-2-yl)butanoic acid] |
| 50 to 500 nM | Cc1ccc(-c2ccc(F)cc2CC(F)(F)c2ccc(CCCC(=O)O)cc2)s1 [Compound 5, 4-(4-(1,1-Difluoro-2-(5-fluoro-2-(5-methylthiophen-2-yl)phenyl)ethyl)phenyl)butanoic acid] |
| 500 to 5000 nM | CC1(c2ccc(-c3ccc(F)cc3CC(F)(F)c3ccc(CCCC(=O)O)cc3)s2)CC1 [Compound 6, 4-(4-(1,1-Difluoro-2-(5-fluoro-2-(5-(1-methylcyclopropyl)thiophen-2-yl)phenyl)ethyl)phenyl)butanoic acid] |
| 500 to 5000 nM | N#CC1(c2ccc(-c3ccc(F)cc3C#Cc3ccc(CCCC(=O)O)cc3)s2)CC1 [Compound 11, 4-(4-((2-(5-(1-Cyanocyclopropyl)thiophen-2-yl)-5-fluorophenyl)ethynyl)phenyl)butanoic acid] |
| 50 to 500 nM | O=C(O)CCCc1ccc(CCc2cc(F)ccc2-c2nc3c(s2)CCCC3)cc1 [Compound 12, 4-(4-(5-fluoro-2-(4,5,6,7-tetrahydrobenzo[d]thiazol-2-yl)phenethyl)phenyl)butanoic acid] |
| 50 to 500 nM | CC1(c2ccc(-c3ccc(F)cc3C=Cc3ccc(CCCC(=O)O)cc3)s2)CC1 [Compound 14, 4-(4-(5-fluoro-2-(5-(1-methylcyclopropyl)thiophen-2-yl)styryl)phenyl)butanoic acid] |
| 50 to 500 nM | O=C(O)CCCc1ccc(C#Cc2cc(F)ccc2-c2ccc(C3CC3)s2)cc1 [Compound 18, 4-(4-((2-(5-cyclopropylthiophen-2-yl)-5-fluorophenyl)ethynyl)phenyl)butanoic acid] |
| 50 to 500 nM | COc1ccc(-c2ccc(F)cc2CC(F)(F)c2ccc(CCCC(=O)O)cc2)cn1 [Compound 20, 4-(4-(1,1-difluoro-2-(5-fluoro-2-(6-methoxypyridin-3-yl)phenyl)ethyl)phenyl)butanoic acid] |
